“And” between values parts separate entries of the source, which are not always exact repeats. Equal values may be shown once. Read-outs that look alike come from different tables or passages of the source. No end group written: not given here. *: point of attachment. Biotin = O=C1N[C@H]2[C@H](CS[C@H]2CCCCC(=O)*)N1
Experiments:
[1] = system: monoclonal antibody 4B5-E3; details: peptides bound to avidin coated plates at 1 μg/ml, absorbance at 450 nm
Method: Cell supernatants were loaded on an IMMULON™ (Thermo Fisher Scientific Inc., Waltham, Mass.) strip plate coated with prorenin and blocked. […] Strips were then washed three times, and developed with TMB 1 (Kirkegaard & Perry Laboratories, Inc., Gaithersburg, Md.) substrate for 5 minutes; solution was quenched with 1N H2SO4. The IMMULON™ plate was read on a microtiter plate spectrophotometer with a set absorbance at 450 nm. Optical density (OD) measurements higher than 3.0 were considered positive clones.
These four peptides were bound to avidin coated plates at a concentration of 1 μg/ml and purified monoclonal 4B5-E3 binding was determined per the screening procedure described earlier.

renin = target: T1, renin (Homo sapiens, UniProt P00797); experiment: Renin activity assay: cleavage of biotin-[…] by renin, detected with the antibody of the invention on avidin-coated plate; assay type: biochemical; details: Renin at 10 ug/ml, aliskiren at 10X excess molar conc.
T1 construct: Renin is produced by cleavage of the 395 amino acid zymogen prorenin
T1 sequence (P00797 67-406): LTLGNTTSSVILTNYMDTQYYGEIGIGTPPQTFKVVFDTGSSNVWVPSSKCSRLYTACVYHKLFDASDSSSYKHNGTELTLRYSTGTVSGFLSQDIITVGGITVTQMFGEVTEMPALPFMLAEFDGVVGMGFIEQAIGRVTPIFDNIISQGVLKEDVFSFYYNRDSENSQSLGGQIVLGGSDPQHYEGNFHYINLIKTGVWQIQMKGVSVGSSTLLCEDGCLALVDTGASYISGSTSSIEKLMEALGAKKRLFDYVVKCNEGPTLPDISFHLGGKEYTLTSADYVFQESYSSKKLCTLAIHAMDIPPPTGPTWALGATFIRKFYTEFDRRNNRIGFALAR
Method: In accordance with the invention, renin was preincubated in the presence and absence of aliskiren, a known renin inhibitor for approximately 2 hours at 37° C. in 50 mM HEPES, 2 mM EDTA, 1% DMA, 0.5% BSA, pH 7.0. This mixture of renin +/−aliskiren was then contacted with biotin-[…] and incubated at 37° C. for approximately eighteen hours. The reaction mixture was then added to an avidin-coated microtiter plate and allowed to adhere thereto for 30 minutes at room temperature and then washed three times with wash buffer, containing 10 mM Tris, 150 mM NaCl, 0.1% BSA and 0.05% Tween. Then 100 μl of the antibody of the invention was added to each well of the microtiter plate and incubated for 30 minutes at room temperature and again washed with wash buffer. Then 100 μl of horse radish peroxidase conjugated goat anti-mouse subclass Fc was added to each well, incubated for 30 minutes at room temperature and washed with wash buffer. Then 100 μl of TMB ONE Solution™, available from Promega Corporation of Madison, Wis., was added to all wells, incubated for five minutes at room temperature. The reaction was stopped with 50 μl 1N H2SO4 and read at 450 nm.

## Biotin-ARLGPEW [Peptide 4.6]
[1]
  binding of peptide to monoclonal antibody 4B5-E3: does not bind monoclonal

## Biotin-ARLGPEWS [Peptide 4.5]
[1]
  binding of peptide to monoclonal antibody 4B5-E3: binds monoclonal
[1]; listed as ARLGPEWS
  binding of peptide to monoclonal antibody 4B5-E3: bound to the monoclonal antibody

## Biotin-ARLGPEWSQ [Peptide 4.4]
[1]
  binding of peptide to monoclonal antibody 4B5-E3: binds monoclonal
[1]; listed as ARLGPEWSQ
  binding of peptide to monoclonal antibody 4B5-E3: bound to the monoclonal antibody

## Biotin-RLGPEWSQPMKR [Peptide 4.2]
[1]
  binding of peptide to monoclonal antibody 4B5-E3: Biotin-RLGPEWSQPMKR (binds monoclonal)

## Biotin-ARLGPEWSQPMKR [Peptide 4.1]
[1]
  binding of peptide to monoclonal antibody 4B5-E3: Biotin-ARLGPEWSQPMKR (binds monoclonal)

## Biotin-GVDMARLGPEWSQPMKR [Peptide 4]
[1]
  binding of peptide to monoclonal antibody 4B5-E3: Biotin-GVDMARLGPEWSQPMKR (binds monoclonal)
[1]; listed as peptide 4
  binding of peptide to monoclonal antibody 4B5-E3: positive result

## COCCCOc1cc(C[C@@H](C[C@H](N)[C@@H](O)C[C@H](C(=O)NCC(C)(C)C(N)=O)C(C)C)C(C)C)ccc1OC [aliskiren]
renin
  inhibition of cleavage of the substrate peptide by renin: inhibition of cleavage of the substrate peptide by renin
renin; preincubated approximately 2 hours at 37° C., substrate approximately eighteen hours
  signal read at 450 nM (uncleaved substrate peptide), renin + inhibitor: 3.363 and 3.481 and 3.596 and 3.824 and 3.754 and 3.497

## Biotin-LGPEWSQPMKR [Peptide 4.3]
[1]
  binding of peptide to monoclonal antibody 4B5-E3: Biotin-LGPEWSQPMKR (does not bind monoclonal)
